Data published in patent publication US20250115665A1, “BISPECIFIC ANTIBODY AGAINST CD3 AND CD20 IN COMBINATION THERAPY FOR TREATING DIFFUSE LARGE B-CELL LYMPHOMA” (GENMAB A/S, priority 2022, published 2025).

Columns and labels:
[1] = test system: CD20-expressing Daudi cells; assay: DuoBody-CD3xCD20-induced T-cell-mediated cytotoxicity assay with lenalidomide pre-treated T cells; format: cell-based; settings: T cells pre-treated with lenalidomide and anti-CD3; Daudi target cells, E:T ratio 2:1
Protocol: T cells were incubated with (5 or 50 μM) or without lenalidomide in the absence or presence of immobilized anti-CD3 for 3 days. […] Data shown are average percentages cytotoxicity±SD of duplicates, normalized to medium control (no antibody, no lenalidomide).
(§1) Briefly, T cells were activated with immobilized anti-CD3 in the presence (5 or 50 μM) or absence of lenalidomide for 3 days. […] T cells that were activated in the presence or absence of lenalidomide were subsequently tested for their cytotoxic capacity in response to epcoritamab.

[2] = test system: highly refractory large B-cell lymphoma; settings: monotherapy, n=157; cited from earlier work
T cells = assay: T-cell activation with immobilized anti-CD3 in the presence or absence of lenalidomide; format: cell-based; settings: lenalidomide 5 or 50 μM, CD3 crosslinking by immobilized anti-CD3, 3 days; compared to no lenalidomide
Protocol: T cells were pre-incubated with assay medium or lenalidomide in the absence or presence of CD3 crosslinking by immobilized anti-CD3 for 3 days (as indicated on the x-axes), after which upregulation of CD69, CD25, PD-1 and LAMP-1 on CD4+ and CD8+ T cells was determined by flow cytometry. Data shown are geomean fluorescence intensities (FI) for four donors (each circle represents one condition for one donor). Pre-incubation conditions are shown on the x-axis.
as §1

Molecule | cytotoxic activity at lower antibody concentrations [1] | maximum percent cytotoxicity [1] | complete response (CR) rate [2] [%] | median duration of response (DOR) [2] [months] | overall response rate (ORR) [2] [%] | safety profile [2] | T-cell activation (upregulation of CD69, CD25 on the T cell surface, release of granzyme B and IFNγ) (T cells)
epcoritamab: IgG1 bispecific CD3×CD20 antibody, heavy/light chains SEQ ID NOs: 24, 25 and 26, 27; CAS 2134641-34-0 | higher activity at lower epcoritamab concentrations | Higher maximum percent cytotoxicity | 39 | 12 | 63 | manageable safety profile | 
Nc1cccc2c1CN(C1CCC(=O)NC1=O)C2=O (stereo not shown) [lenalidomide, 3-(4-Amino-1-oxo-1,3-dihydro-2H-isoindol-2-yl) piperidine-2,6-dione] |  |  |  |  |  |  | increased T-cell activation
